In patent US8906935B2, “Thiazolyl- and oxazolyl-isoquinolinones and methods for using them” (priority 2008, dated 2014):
Where a name gives a salt, the structure may show the parent alone.

Target: T1, hrPARP-1 (human recombinant) (Homo sapiens, UniProt P09874)
T1 construct: purchased Trevigen
Experiment: Functional assessment of human PARP-1 enzymatic activity
Format: biochemical
Details: 1 U hrPARP-1, 15 μg/mL activated DNA, 5 μM NAD+, 20 min room temperature, fluorescence readout
Description: Functional Assessment of Human PARP-1 Enzymatic Activity
hrPARP-1 (human recombinant, Trevigen), Activated DNA (Sigma), 6(5H)-phenanthridinone (PND), (Sigma), NAD+ (Calbiochem), PARP-1 assay buffer (50 mM Tris, 2 mM MgCl2, pH 8.0), 20% acetophenone in EtOH, 2 M KOH 88% formic acid, 110° C. oven, Flexstation Plate Reader.
Compound plates were prepared by making a series of 1:3 dilutions for each tested compound, 10 steps of each at 20 μL in DMSO starting from a concentration of 5 mM. NAD^+ (39 μL of a 6.4 μM solution) were added to each well of a 96-well flat bottom fluorescent assay plate. Test compound (1 μL) was added to each well. To initiate the reaction, 10 μL of PARP (contains 5 U of PARP and 75 μg/mL activated DNA) was added with a final 1 U hrPARP-1, 15 μg/mL activated DNA and 5 μM of NAD^+. The highest concentration used for test compounds was 100 μM. The plates were incubated at room temperature on a shaker, After 20 min, 20 μL of 2 M KOH and 20 μL of 20% acetophenone were added. The plate was incubated 10 min. at 4° C., and 90 μL of 88% formic acid was added. After incubating in a 110° C. oven for 5 min, the plate was cooled to room temperature and read of a Flexstation Plate Reader (excitation at 360 nm, emission at 445 nm).
LSW data analysis software was used to generate PARP-1 IC50s.

T1 sequence (P09874 whole entry): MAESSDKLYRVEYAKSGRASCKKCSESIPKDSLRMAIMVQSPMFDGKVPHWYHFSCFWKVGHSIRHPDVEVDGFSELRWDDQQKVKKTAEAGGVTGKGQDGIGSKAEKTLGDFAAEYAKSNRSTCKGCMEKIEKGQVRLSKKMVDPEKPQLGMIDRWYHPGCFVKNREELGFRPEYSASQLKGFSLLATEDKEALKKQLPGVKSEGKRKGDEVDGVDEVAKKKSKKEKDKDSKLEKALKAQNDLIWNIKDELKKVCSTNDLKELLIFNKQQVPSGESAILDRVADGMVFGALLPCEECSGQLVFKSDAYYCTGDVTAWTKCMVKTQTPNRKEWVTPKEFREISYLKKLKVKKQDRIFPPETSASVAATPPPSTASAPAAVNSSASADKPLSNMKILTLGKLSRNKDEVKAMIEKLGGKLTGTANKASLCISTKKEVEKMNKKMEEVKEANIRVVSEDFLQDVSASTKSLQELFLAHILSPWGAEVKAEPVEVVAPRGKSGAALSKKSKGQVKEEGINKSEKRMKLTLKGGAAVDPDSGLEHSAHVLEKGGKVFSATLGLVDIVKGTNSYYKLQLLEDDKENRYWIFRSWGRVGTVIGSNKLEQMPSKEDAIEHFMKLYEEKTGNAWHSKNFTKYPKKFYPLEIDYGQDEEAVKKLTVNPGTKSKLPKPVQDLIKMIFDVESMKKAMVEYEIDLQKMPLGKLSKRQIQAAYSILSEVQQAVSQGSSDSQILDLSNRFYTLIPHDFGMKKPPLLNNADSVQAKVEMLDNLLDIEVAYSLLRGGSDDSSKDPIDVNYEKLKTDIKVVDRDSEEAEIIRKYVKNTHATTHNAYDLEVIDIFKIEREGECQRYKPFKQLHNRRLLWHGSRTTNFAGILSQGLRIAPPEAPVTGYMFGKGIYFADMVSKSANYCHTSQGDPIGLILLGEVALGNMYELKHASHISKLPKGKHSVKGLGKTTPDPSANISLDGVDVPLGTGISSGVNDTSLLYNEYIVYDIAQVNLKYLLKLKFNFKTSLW

Row | Compound | IC50 [nM]
1 | CN(C)CCc1nc2c([nH]c(=O)c3ccccc32)s1 [Example 3, 2-(2-(Dimethylamino)ethyl)thiazolo[5,4-c]isoquinolin-5(4H)-one] | 358
2 | O=c1[nH]c2sc(CN3CCC[C@@H]3C(F)(F)F)nc2c2c(O)cccc12 [Example 12, 9-Hydroxy-2-{[(2R)-2-(trifluoromethyl)pyrrolidin-1-yl]methyl}[1,3]thiazolo[5,4-c]isoquinolin-5(4H)-one] | 3500
3 | O=c1[nH]c2sc(CN3CCCC4CCCCC43)nc2c2c(O)cccc12 (stereo not shown) [Example 9, 9-Hydroxy-2-(octahydroquinolin-1(2H)-ylmethyl)[1,3]thiazolo[5,4-c]isoquinolin-5(4H)-one] | 2450
4 | O=c1[nH]c2sc(CN3CCOCC3)nc2c2c(O)cccc12 [Example 5, 9-Hydroxy-2-(morpholin-4-ylmethyl)[1,3]thiazolo[5,4-c]isoquinolin-5(4H)-one] | 18.3
5 | CN(C)Cc1nc2c([nH]c(=O)c3cccc(O)c32)s1 [Example 4, 2-((Dimethylamino)methyl)-9-hydroxythiazolo[5,4-c]isoquinolin-5(4H)-one] | 99
6 | CN(C)CC#Cc1nc2c([nH]c(=O)c3ccccc32)s1 [Example 2, 2-[3-(Dimethylamino)prop-1-yn-1-yl][1,3]thiazolo[5,4-c]isoquinolin-5(4H)-one] | 414
7 | CN(C)Cc1nc2c([nH]c(=O)c3ccccc32)s1 [Example 1, 2-[(Dimethylamino)methyl][1,3]thiazolo[5,4-c]isoquinolin-5(4H)-one hydrochloride] | 378

Continued, values first:

Row | IC50 [nM] | Compound
8 | 111 | O=c1[nH]c2sc(CN3CCCC3)nc2c2c(O)cccc12 [Example 7, 9-Hydroxy-2-(pyrrolidin-1-ylmethyl)[1,3]thiazolo[5,4-c]isoquinolin-5(4H)-one]
9 | 3090 | C[C@@H]1CN(Cc2nc3c([nH]c(=O)c4cccc(O)c43)s2)C[C@H](C)O1 [Example 10, 2-{[(2R,6S)-2,6-Dimethylmorpholin-4-yl]methyl}-9-hydroxy[1,3]thiazolo[5,4-c]isoquinolin-5(4H)-one]
10 | 747 | CC1CCCN1Cc1nc2c([nH]c(=O)c3cccc(O)c32)s1 (stereo not shown) [Example 11, 9-Hydroxy-2-[(2-methylpyrrolidin-1-yl)methyl][1,3]thiazolo[5,4-c]isoquinolin-5(4H)-one]
11 | 1500 | C[C@@H]1CCC[C@H](C)N1Cc1nc2c([nH]c(=O)c3cccc(O)c32)s1 [Example 13, 2-{[(2R,6S)-2,6-Dimethylpiperidin-1-yl]methyl}-9-hydroxy[1,3]thiazolo[5,4-c]isoquinolin-5(4H)-one]
12 | 1370 | O=c1[nH]c2sc(CN3CCCCC3)nc2c2c(O)cccc12 [Example 6, 9-Hydroxy-2-(piperidin-1-ylmethyl)[1,3]thiazolo[5,4-c]isoquinolin-5(4H)-one]
13 | 223 | CN(C)[C@@H]1CCN(Cc2nc3c([nH]c(=O)c4cccc(O)c43)s2)C1 [Example 8, 2-{[(3R)-3-(dimethylamino)pyrrolidin-1-yl]methyl}-9-hydroxy[1,3]thiazolo[5,4-c]isoquinolin-5(4H)-one]
